Assay results from patent US7227038B2, “Adamantane derivatives, processes for their preparation and pharmaceutical composition containing them” (AstraZeneca AB, priority 2003, dated 2007).
Counter-ions that a name gives are not always drawn.

Molecular target: T1, P2X7 receptor (Homo sapiens, UniProt Q99572)
T1 construct: 200 μl of a suspension of THP-1 cells; endogenous in cells; host or cells: THP-1 cells
T1 sequence (Q99572 1-595): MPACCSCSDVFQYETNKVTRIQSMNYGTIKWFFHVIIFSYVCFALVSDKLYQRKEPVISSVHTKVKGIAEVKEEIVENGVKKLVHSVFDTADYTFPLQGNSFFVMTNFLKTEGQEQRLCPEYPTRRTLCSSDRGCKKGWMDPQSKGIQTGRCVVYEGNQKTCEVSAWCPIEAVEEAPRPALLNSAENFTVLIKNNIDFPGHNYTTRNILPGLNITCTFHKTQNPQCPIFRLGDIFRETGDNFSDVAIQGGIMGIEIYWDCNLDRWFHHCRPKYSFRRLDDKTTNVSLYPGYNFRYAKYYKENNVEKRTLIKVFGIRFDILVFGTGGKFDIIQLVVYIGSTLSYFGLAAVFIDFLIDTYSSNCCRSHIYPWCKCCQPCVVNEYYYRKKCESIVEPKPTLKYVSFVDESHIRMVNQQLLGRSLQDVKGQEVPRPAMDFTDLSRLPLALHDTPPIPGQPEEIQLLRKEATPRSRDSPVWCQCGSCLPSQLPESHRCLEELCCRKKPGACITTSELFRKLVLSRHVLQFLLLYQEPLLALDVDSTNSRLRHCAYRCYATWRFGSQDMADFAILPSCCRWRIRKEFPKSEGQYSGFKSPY
Test: bbATP-induced ethidium bromide uptake (fluorescence) in THP-1 cells, P2X7 receptor antagonist activity
Format: cell-based
Conditions: 10^-5M bbATP, 37° C. for one hour, read-out: pIC50 (negative logarithm of the concentration of test compound necessary to reduce the bbATP agonist activity by 50%) (converted)
From the text: Certain compounds such as benzoylbenzoyl adenosine triphosphate (bbATP) are known to be agonists of the P2X7 receptor, effecting the formation of pores in the plasma membrane (Drug Development Research (1996), 37(3), p.126). Consequently, when the receptor is activated using bbATP in the presence of ethidium bromide (a fluorescent DNA probe), an increase in the fluorescence of intracellular DNA-bound ethidium bromide is observed. The increase in fluorescence can be used as a measure of P2X7 receptor activation and therefore to quantify the effect of a compound on the P2X7 receptor.
In this manner, each of the title compounds of the Examples was tested for antagonist activity at the P2X7 receptor. Thus, the test was performed in 96-well flat bottomed microtitre plates, the wells being filled with 250 μl of test solution comprising 200 μl of a suspension of THP-1 cells (2.5×10^6 cells/ml) containing 10^−4M ethidium bromide, 25 μl of a high potassium buffer solution containing 10^−5M bbATP, and 25 μl of the high potassium buffer solution containing 3×10^−5M test compound. The plate was covered with a plastics sheet and incubated at 37° C. for one hour. The plate was then read in a Perkin-Elmer fluorescent plate reader, excitation 520 nm, emission 595 nm, slit widths: Ex 15 nm, Em 20 nm. […]

Row | IC50 [nM] | SMILES
1 | 10 | CNC[C@@H](O)CCc1ccc(Cl)c(C(=O)NCC23CC4CC(CC(C4)C2)C3)c1.Cl [Example 1, 2-Chloro-5-[(3S)-3-hydroxy-4-(methylamino)butyl]-N-(tricyclo[3.3.1.1^3,7]dec-1-ylmethyl)benzamide, hydrochloride]
2 | 3.98 | CN(C)C[C@H](O)Cc1ccc(Cl)c(C(=O)NCC23CC4CC(CC(C4)C2)C3)c1 [Example 8, 2-Chloro-5-[(2R)-3-(dimethylamino)-2-hydroxypropyl]-N-(tricyclo[3.3.1.1^3,7]dec-1-ylmethyl)-benzamide, hydrochloride]

Test system: not given
Test: not given
Conditions: not given

Row | melting point | SMILES
3 | 196 °C | CNC[C@@H](O)Cc1ccc(Cl)c(C(=O)NCC23CC4CC(CC(C4)C2)C3)c1 (as salt: hydrochloride)
4 | 218 °C | CCNC[C@H](O)Cc1ccc(Cl)c(C(=O)NCC23CC4CC(CC(C4)C2)C3)c1 (as salt: hydrochloride)
5 | 189 °C | CC(C)NC[C@H](O)Cc1ccc(Cl)c(C(=O)NCC23CC4CC(CC(C4)C2)C3)c1 (as salt: hydrochloride)
6 | 225 °C | O=C(NCC12CC3CC(CC(C3)C1)C2)c1cc(C[C@@H](O)CNCCCO)ccc1Cl (as salt: hydrochloride)
7 | 214 °C | CCNC[C@@H](O)Cc1ccc(Cl)c(C(=O)NCC23CC4CC(CC(C4)C2)C3)c1 (as salt: hydrochloride) [Example 14, 2-Chloro-5-[(2S)-3-(ethylamino)-2-hydroxypropyl]-N-(tricyclo [3.3.1.1^3,7]dec-1-ylmethyl)-benzamide, hydrochloride salt]
8 | > 200 °C (dec.) | CNC[C@@H](O)CCc1ccc(Cl)c(C(=O)NCC23CC4CC(CC(C4)C2)C3)c1.Cl [Example 1, 2-Chloro-5-[(3S)-3-hydroxy-4-(methylamino)butyl]-N-(tricyclo[3.3.1.1^3,7]dec-1-ylmethyl)benzamide, hydrochloride]
